What was measured:
total ATXN3 protein = test: ATXN3 total protein assay (MSD, SK-N-MC cells); assay type: cell-based, Human; details: 48 hours incubation, read-out: ATXN3 Potency - Protein IC50
Outline: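 SK-N-MC human neuroblastoma cells treated with compound (30 μM to 0.6 nM) for 48 h, then lysed with protease inhibitors. Total ATXN3 measured by MSD sandwich immunoassay (mouse capture, rabbit detection antibodies, anti-rabbit MSD-ST secondary), quantified against recombinant ATXN3 standards.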

[1] = system: ATXN3 transcripts containing exon 4 (E4E5); test: ATXN3 quantitative splicing assay (qPCR, SK-N-MC cells); assay type: cell-based; details: Homo sapiens, 24 h treatment, qPCR E4E5 primers/probe, read-out: ATXN3 Potency - Splicing E4E5 IC50
Outline: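 SK-N-MC cells treated 24 h with compound (30 μM to 0.6 nM, 0.3% DMSO) 24 h after plating; lysates reverse-transcribed and analysed by TaqMan qPCR. E4E5 primers/probe detect exon 4–containing transcripts; E8E9 measures total ATXN3, alongside exon 4–skipped transcript detection.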

| SMILES | IC50 (total ATXN3 protein) | IC50 [1] |
| --- | --- | --- |
| C#CC[C@H](N)Cc1sc2c(NCc3cccs3)cnnc2c1C [Compound 142, 6-[(2S)-2-aminopent-4-yn-1-yl]-7-methyl-N-(thiophen-2-ylmethyl)thieno[3,2-c]pyridazin-4-amine] | 0.501 to 5 µM | 0.501 to 5 µM |
| Cc1c(C[C@@H](N)CC(F)(F)F)sc2c(NCc3cccs3)cnnc12 [Compound 50, 6-[(2S)-2-amino-4,4,4-trifluorobutyl]-7-methyl-N-[(thiophen-2-yl)methyl]thieno[3,2-c]pyridazin-4-amine] | 0.501 to 5 µM | 0.501 to 5 µM |
| Cc1c(C[C@H](C)N)sc2c(NCc3ccns3)cnnc12 [Compound 18, 6-[(2S)-2-aminopropyl]-7-methyl-N-[(1,2-thiazol-5-yl)methyl]thieno[3,2-c]pyridazin-4-amine] | 10 to 40 µM | 10 to 40 µM |
| Cc1c(C[C@H](C)N)sc2c(NCc3cccs3)cnnc12 [Compound 4, 6-[(2S)-2-aminopropyl]-7-methyl-N-(thiophen-2-ylmethyl)thieno[3,2-c]pyridazin-4-amine] | 0.101 to 0.5 µM | 0.501 to 5 µM |
| Cc1c(C[C@@H](C)N)sc2c(NCc3cccs3)cnnc12 [Compound 49, 6-[(2R)-2-aminopropyl]-7-methyl-N-[(thiophen-2-yl)methyl]thieno[3,2-c]pyridazin-4-amine] | 10 to 40 µM | 10 to 40 µM |
| Cc1c([C@@H](C)[C@@H](C)N)sc2c(NCc3cccs3)cnnc12 [Compound 102, 6-[(2S,3R)-3-aminobutan-2-yl]-7-methyl-N-[(thiophen-2-yl)methyl]thieno[3,2-c]pyridazin-4-amine] | 10 to 40 µM | 10 to 40 µM |

Reference: patent US20250101034A1, “COMPOSITIONS USEFUL FOR MODULATING SPLICING” (SKYHAWK THERAPEUTICS, INC., priority 2021, published 2025)
